Data as given in patent US20060035810A1, “Regulation of ins(3456)p4 signalling by a reversible kinase phosphatase and methods and compositions related thereto” (priority 2002, published 2006).

Experiments:
Assay type in all cases: cell-based, mouse
[1] = system: insulin granules in pancreatic β-cells; assay: CCCP-mediated de-acidification of insulin granules, LSG fluorescence
Description: FIG. 7A, Representative confocal images of LSG fluorescence immediately before (zero) and 60 s after perfusion of cells with intracellular buffer supplemented with 100 μM of the protonophore, CCCP, in the absence or presence of 10 μM Ins(3,4,5,6)P4. FIG. 7B, Representative time-courses for changes in LSG-fluorescence ([F/F0] as % of zero time) immediately after establishing a standard whole-cell configuration as in panel A, with intracellular medium (containing 0.4 μM [Ca^2+]free except where “no calcium” is indicated; see Methods) plus 100 μM CCCP, together with either 0 (“control”) or 10 μM Ins(3,4,5,6)P4. FIG. 7C, Mean (±SE) fluorescence changes (n=4-6), during the 60 s that followed establishment of the standard whole-cell configuration, for cells perfused with intracellular medium supplemented with inositol phosphates as indicated at the base of the bar graph ([…]).
The inositol phosphates used in this study were all purchased from CellSignals Inc (Lexington, Ky.). Insulin granule pH were monitored by combining the patch-clamp technique with confocal imaging. Pancreatic β-cells, isolated and cultured on glass coverslips for 2-24 h, were voltage clamped at −70 mV, as previously described (B9). LysoSensor-Green™ DND-189 (1 μM; Molecular Probes, Leiden, The Netherlands) was added during the last 30 min of cell culture and was also included in the extracellular buffer (B9) that continuously perfused the experimental chamber. All LSG experiments were performed at 20° C. to prevent exocytosis that otherwise interfered with the optical measurements (15). LSG fluorescence was excited using the 488 nm-line of a Zeiss 510 confocal microscope. The emitted light was collected with a 63×/1.3 NA oil objective and a >505 nm filter. Laser scanning was performed with low pixel resolution (128×128) and with 6 s intervals to minimize photo-bleaching. After gigaseal formation, it was ascertained that LSG fluorescence was stable for at least 30 s before the experiment commenced. The intracellular electrode solution contained: 125 mM K-glutamate, 10 mM KCl, 1 0 mM NaCl, 1 mM MgCl2, 5 mM HEPES, 3 mM Mg-ATP, 0.1 mM cAMP, 10 mM EGTA and 7 mM CaCl2 (˜0.4 μM free [Ca^2+]I; pH 7.2 with KOH). In some experiments, marked “no calcium”, there was no added Ca^2+, and the concentration of EGTA was 50 μM. Whole-cell capacitance measurements (at 33° C.) were made with the cells clamped at −70 mV, and the standard whole-cell configuration was established at t=0. Capacitance recordings were made using an EPC-7 patch-clamp amplifier equipped with the software Pulse (version 8.4 and later) and the X-chart extension (HEKA Elektronik, Lambrecht/Pfalz, Germany) (B9). […]

[2] = system: insulin granules in pancreatic β-cells; assay: Insulin granule acidification, LSG fluorescence with patch-clamp and confocal imaging
Description: FIG. 6. Ins(3,4,5,6)P4 inhibits acidification of insulin granules in pancreatic β-cells. FIG. 6A, Representative time-courses for intragranular acidification, monitored by increased fluorescence of LSG before and after establishment of the standard whole-cell configuration (see arrow) and the effect of perfusion of intracellular medium (containing 0.4 μM [Ca^2+]free except where “no calcium” is indicated; see Methods) plus either 0 (“control”), 1 or 10 μM Ins(3,4,5,6)P4. FIG. 6B, Mean (±SE) fluorescence changes (n-5-11), during the 60 s that followed establishment of the standard whole-cell configuration, for cells perfused with inositol phosphates as indicated at the base of the bar graph. Where indicated, DIDS (100 μM) were added to the bath solution 30 min prior to patching the cells. Statistical significance was evaluated by Student's unpaired t-test (* P<0.01).
The inositol phosphates used in this study were all purchased from CellSignals Inc (Lexington, Ky.). Insulin granule pH were monitored by combining the patch-clamp technique with confocal imaging. Pancreatic β-cells, isolated and cultured on glass coverslips for 2-24 h, were voltage clamped at −70 mV, as previously described (B9). LysoSensor-Green™ DND-189 (1 μM; Molecular Probes, Leiden, The Netherlands) was added during the last 30 min of cell culture and was also included in the extracellular buffer (B9) that continuously perfused the experimental chamber. All LSG experiments were performed at 20° C. to prevent exocytosis that otherwise interfered with the optical measurements (15). LSG fluorescence was excited using the 488 nm-line of a Zeiss 510 confocal microscope. The emitted light was collected with a 63×/1.3 NA oil objective and a >505 nm filter. Laser scanning was performed with low pixel resolution (128×128) and with 6 s intervals to minimize photo-bleaching. After gigaseal formation, it was ascertained that LSG fluorescence was stable for at least 30 s before the experiment commenced. The intracellular electrode solution contained: 125 mM K-glutamate, 10 mM KCl, 1 0 mM NaCl, 1 mM MgCl2, 5 mM HEPES, 3 mM Mg-ATP, 0.1 mM cAMP, 10 mM EGTA and 7 mM CaCl2 (˜0.4 μM free [Ca^2+]I; pH 7.2 with KOH). In some experiments, marked “no calcium”, there was no added Ca^2+, and the concentration of EGTA was 50 μM. Whole-cell capacitance measurements (at 33° C.) were made with the cells clamped at −70 mV, and the standard whole-cell configuration was established at t=0. Capacitance recordings were made using an EPC-7 patch-clamp amplifier equipped with the software Pulse (version 8.4 and later) and the X-chart extension (HEKA Elektronik, Lambrecht/Pfalz, Germany) (B9).

pancreatic β-cells = assay: Ca2+-induced exocytosis, whole-cell capacitance recordings
Description: FIG. 8A, Representative increases in cell capacitance (ΔC), reflecting exocytosis (as is described in Barg et al., J. Cell Sci 114: 2145-2154 (2001)), elicited by intracellular perfusion with intracellular solution (0.4 μM [Ca^2+]free), containing either 0 (“control”) or 10 μM Ins(3,4,5,6)P4. FIG. 8B, Average rates of capacitance increase (ΔC/Δt) during the first minute of recording, as described for FIG. 8A, in 5-17 experiments. FIG. 8C, Representative increases in ΔC, measured under the same conditions as in FIG. 8A, except that the [Ca^2+]free was 1.5 μM. FIG. 8D, Average rates of capacitance increase (ΔC/Δt) during the first minute of recording, as described for FIG. 8C, in 6-11 experiments.
The inositol phosphates used in this study were all purchased from CellSignals Inc (Lexington, Ky.). Insulin granule pH were monitored by combining the patch-clamp technique with confocal imaging. Pancreatic β-cells, isolated and cultured on glass coverslips for 2-24 h, were voltage clamped at −70 mV, as previously described (B9). LysoSensor-Green™ DND-189 (1 μM; Molecular Probes, Leiden, The Netherlands) was added during the last 30 min of cell culture and was also included in the extracellular buffer (B9) that continuously perfused the experimental chamber. All LSG experiments were performed at 20° C. to prevent exocytosis that otherwise interfered with the optical measurements (15). LSG fluorescence was excited using the 488 nm-line of a Zeiss 510 confocal microscope. The emitted light was collected with a 63×/1.3 NA oil objective and a >505 nm filter. Laser scanning was performed with low pixel resolution (128×128) and with 6 s intervals to minimize photo-bleaching. After gigaseal formation, it was ascertained that LSG fluorescence was stable for at least 30 s before the experiment commenced. The intracellular electrode solution contained: 125 mM K-glutamate, 10 mM KCl, 1 0 mM NaCl, 1 mM MgCl2, 5 mM HEPES, 3 mM Mg-ATP, 0.1 mM cAMP, 10 mM EGTA and 7 mM CaCl2 (˜0.4 μM free [Ca^2+]I; pH 7.2 with KOH). In some experiments, marked “no calcium”, there was no added Ca^2+, and the concentration of EGTA was 50 μM. Whole-cell capacitance measurements (at 33° C.) were made with the cells clamped at −70 mV, and the standard whole-cell configuration was established at t=0. […]
The degree of insulin granule acidification in pancreatic β-cells has been proposed to affect their fusogenic potential, thereby influencing the rate of insulin secretion by exocytosis (B9;B16). So we next investigated if the interaction of Ins(3,4,5,6)P4 with insulin granule Cl^− channels affected exocytosis, which we recorded by monitoring capacitance of β-cells with the whole-cell patch-clamp technique (B16). […]

Row | SMILES | effect on rate of CCCP-promoted H+ efflux out of the granule ([1]; 100 μM, 100 μM CCCP) | effect on vesicle acidification ([2]; 100 μM) | effect on exocytosis (pancreatic β-cells; 100 μM, 0.4 μM [Ca2+]free) | effect on CCCP-induced collapse of the pH gradient ([1]; 1 μM (resting level)) | effect on CCCP-induced H+ flux ([1]; 10 μM, 100 μM CCCP) | effect on granule acidification ([2]; 1 μM (resting level)) | reduction of the rate of acidification of the granular interior ([2]; 10 μM perfused into the cell, 0.4 μM [Ca2+]free) | effect on exocytosis (pancreatic β-cells; 1 μM, 0.4 μM [Ca2+]free) | effect on rate of exocytosis (pancreatic β-cells; 1.5 μM [Ca2+]free) | inhibition at 10 µM (pancreatic β-cells; Mus musculus, 10 μM, 0.4 μM [Ca2+]free)
1 | O=P(O)(O)OC1[C@@H](OP(=O)(O)O)[C@H](OP(=O)(O)O)C(O)[C@H](OP(=O)(O)O)[C@H]1OP(=O)(O)O (stereo partly shown) [Ins(1,3,4,5,6)P5, inositol 1,3,4,5,6-pentakisphosphate] | no effect | neither 100 μM Ins(1,4,5,6)P4 nor 100 μM Ins(1,3,4,5,6)P5 affected | no effect | – | – | – | – | – | – | –
2 | O=P(O)(O)OC1C(O)C(O)C(OP(=O)(O)O)C(OP(=O)(O)O)C1OP(=O)(O)O (stereo not shown) [Ins(3,4,5,6)P4, inositol 3,4,5,6-tetrakisphosphate] | – | – | – | failed to affect | inhibitory effect | ineffective | approximately 65% | ineffective | did not affect | ~50%
